Experiment [1] deals with T1, Ephrin type-B receptor 3 (Homo sapiens) (UniProt P54753).
T1 sequence (whole entry): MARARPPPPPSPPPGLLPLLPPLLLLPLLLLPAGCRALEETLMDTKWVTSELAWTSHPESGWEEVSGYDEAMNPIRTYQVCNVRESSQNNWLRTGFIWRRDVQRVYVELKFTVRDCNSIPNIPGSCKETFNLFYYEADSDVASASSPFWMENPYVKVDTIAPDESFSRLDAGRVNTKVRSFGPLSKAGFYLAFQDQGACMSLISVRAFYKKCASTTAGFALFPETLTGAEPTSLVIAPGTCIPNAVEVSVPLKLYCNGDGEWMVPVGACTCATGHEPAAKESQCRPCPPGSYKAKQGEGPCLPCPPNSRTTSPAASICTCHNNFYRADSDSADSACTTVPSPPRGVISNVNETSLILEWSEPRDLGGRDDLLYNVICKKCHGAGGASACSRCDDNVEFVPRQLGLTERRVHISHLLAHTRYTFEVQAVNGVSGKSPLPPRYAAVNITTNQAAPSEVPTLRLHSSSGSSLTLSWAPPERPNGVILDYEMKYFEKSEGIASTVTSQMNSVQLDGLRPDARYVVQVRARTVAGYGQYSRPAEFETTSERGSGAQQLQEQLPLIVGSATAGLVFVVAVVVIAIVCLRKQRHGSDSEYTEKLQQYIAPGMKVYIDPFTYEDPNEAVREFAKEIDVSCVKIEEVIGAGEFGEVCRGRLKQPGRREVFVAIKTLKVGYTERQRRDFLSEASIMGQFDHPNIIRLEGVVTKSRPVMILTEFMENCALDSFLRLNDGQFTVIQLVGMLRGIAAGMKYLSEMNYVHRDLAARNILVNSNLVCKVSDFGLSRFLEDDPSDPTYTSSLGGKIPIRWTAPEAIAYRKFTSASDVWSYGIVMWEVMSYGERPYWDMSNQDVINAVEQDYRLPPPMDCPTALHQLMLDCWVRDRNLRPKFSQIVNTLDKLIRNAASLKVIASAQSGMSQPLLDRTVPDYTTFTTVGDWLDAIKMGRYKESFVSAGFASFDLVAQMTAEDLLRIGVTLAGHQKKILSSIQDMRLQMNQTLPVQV
The experiment is described as follows: Inhibition of EPHB3 (unknown origin) at 10 uM after 120 mins P33 radiolabeled kinase activity assay.

The target of experiment [2] is Serine/threonine-protein kinase Nek4 (Homo sapiens) (UniProt P51957). Nature of the experiment: Inhibition of NEK4 (unknown origin) at 10 uM after 120 mins P33 radiolabeled kinase activity assay.
The target of experiment [3] is Mitogen-activated protein kinase kinase kinase 9 (Homo sapiens) (UniProt P80192). The experiment is described as follows: Inhibition of MLK1 (unknown origin) at 10 uM after 120 mins P33 radiolabeled kinase activity assay.
The target in experiment [4] is Platelet-derived growth factor receptor beta (Homo sapiens) (UniProt P09619). Nature of the experiment: Inhibition of PDGFRbeta (unknown origin) at 10 uM after 120 mins P33 radiolabeled kinase activity assay.
In experiment [5] the target is T2, Serine/threonine-protein kinase BRSK2 (Homo sapiens) (UniProt Q8IWQ3).
T2 sequence (whole entry): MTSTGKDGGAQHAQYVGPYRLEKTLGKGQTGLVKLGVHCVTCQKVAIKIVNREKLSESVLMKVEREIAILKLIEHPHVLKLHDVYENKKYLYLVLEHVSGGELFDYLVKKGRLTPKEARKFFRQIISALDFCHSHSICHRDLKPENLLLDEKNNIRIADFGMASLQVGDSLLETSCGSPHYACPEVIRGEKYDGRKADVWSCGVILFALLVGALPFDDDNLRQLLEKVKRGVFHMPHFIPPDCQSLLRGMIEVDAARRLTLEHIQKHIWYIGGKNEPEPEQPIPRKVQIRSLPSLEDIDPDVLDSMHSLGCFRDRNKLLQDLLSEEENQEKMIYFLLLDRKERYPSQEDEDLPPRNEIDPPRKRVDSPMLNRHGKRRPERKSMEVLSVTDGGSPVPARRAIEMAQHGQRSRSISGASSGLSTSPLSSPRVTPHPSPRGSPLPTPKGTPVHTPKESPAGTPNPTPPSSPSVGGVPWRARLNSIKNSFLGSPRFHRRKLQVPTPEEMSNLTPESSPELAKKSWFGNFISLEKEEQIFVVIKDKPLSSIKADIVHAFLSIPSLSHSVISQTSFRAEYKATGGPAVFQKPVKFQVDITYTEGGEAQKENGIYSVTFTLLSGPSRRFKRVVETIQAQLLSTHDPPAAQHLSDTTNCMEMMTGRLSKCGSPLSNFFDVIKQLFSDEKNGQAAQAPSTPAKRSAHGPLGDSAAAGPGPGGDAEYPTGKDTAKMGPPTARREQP
The experiment is described as follows: Inhibition of BRSK2 (unknown origin) at 10 uM after 120 mins P33 radiolabeled kinase activity assay.

The target in experiment [6] is Tyrosine-protein kinase FRK (Homo sapiens) (UniProt P42685). The experiment is described as follows: Inhibition of FRK (unknown origin) at 10 uM after 120 mins P33 radiolabeled kinase activity assay.
Experiment [7] deals with T3, Non-receptor tyrosine-protein kinase TNK1 (Homo sapiens) (UniProt Q13470).
T3 sequence (whole entry): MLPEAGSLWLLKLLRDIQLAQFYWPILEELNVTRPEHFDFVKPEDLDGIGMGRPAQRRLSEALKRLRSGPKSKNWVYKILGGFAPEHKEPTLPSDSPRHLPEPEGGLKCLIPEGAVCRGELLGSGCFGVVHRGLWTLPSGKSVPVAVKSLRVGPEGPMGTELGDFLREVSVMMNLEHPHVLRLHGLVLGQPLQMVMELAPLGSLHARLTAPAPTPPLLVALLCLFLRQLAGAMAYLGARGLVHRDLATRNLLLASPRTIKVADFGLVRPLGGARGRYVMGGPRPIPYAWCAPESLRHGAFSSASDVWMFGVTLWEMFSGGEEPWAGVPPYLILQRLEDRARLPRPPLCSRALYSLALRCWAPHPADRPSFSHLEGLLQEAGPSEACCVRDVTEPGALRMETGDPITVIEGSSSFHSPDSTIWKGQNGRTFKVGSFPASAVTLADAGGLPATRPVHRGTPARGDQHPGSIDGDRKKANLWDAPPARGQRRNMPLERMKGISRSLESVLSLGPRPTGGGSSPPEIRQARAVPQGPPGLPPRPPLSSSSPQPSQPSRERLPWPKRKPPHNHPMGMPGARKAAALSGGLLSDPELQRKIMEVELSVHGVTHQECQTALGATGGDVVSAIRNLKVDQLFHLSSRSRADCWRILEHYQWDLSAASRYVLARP
The experiment is described as follows: Inhibition of TNK1 (unknown origin) at 10 uM after 120 mins P33 radiolabeled kinase activity assay.

Tyrosine-protein kinase FRK (Homo sapiens), sequence (P42685 whole entry): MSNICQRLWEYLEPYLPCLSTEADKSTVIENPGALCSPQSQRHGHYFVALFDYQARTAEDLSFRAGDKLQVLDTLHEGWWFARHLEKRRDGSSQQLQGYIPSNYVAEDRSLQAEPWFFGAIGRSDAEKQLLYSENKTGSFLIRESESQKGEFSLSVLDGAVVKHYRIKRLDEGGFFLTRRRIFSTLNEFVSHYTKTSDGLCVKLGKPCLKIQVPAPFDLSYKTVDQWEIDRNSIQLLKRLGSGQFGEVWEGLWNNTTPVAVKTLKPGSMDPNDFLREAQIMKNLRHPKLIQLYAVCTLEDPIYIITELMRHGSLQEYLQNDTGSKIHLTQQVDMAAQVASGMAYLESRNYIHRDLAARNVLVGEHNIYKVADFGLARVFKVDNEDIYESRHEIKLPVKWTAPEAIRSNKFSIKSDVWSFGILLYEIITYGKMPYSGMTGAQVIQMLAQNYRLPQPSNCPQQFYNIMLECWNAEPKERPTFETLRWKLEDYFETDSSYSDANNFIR
Mitogen-activated protein kinase kinase kinase 9 (Homo sapiens), sequence (P80192 whole entry, looked up): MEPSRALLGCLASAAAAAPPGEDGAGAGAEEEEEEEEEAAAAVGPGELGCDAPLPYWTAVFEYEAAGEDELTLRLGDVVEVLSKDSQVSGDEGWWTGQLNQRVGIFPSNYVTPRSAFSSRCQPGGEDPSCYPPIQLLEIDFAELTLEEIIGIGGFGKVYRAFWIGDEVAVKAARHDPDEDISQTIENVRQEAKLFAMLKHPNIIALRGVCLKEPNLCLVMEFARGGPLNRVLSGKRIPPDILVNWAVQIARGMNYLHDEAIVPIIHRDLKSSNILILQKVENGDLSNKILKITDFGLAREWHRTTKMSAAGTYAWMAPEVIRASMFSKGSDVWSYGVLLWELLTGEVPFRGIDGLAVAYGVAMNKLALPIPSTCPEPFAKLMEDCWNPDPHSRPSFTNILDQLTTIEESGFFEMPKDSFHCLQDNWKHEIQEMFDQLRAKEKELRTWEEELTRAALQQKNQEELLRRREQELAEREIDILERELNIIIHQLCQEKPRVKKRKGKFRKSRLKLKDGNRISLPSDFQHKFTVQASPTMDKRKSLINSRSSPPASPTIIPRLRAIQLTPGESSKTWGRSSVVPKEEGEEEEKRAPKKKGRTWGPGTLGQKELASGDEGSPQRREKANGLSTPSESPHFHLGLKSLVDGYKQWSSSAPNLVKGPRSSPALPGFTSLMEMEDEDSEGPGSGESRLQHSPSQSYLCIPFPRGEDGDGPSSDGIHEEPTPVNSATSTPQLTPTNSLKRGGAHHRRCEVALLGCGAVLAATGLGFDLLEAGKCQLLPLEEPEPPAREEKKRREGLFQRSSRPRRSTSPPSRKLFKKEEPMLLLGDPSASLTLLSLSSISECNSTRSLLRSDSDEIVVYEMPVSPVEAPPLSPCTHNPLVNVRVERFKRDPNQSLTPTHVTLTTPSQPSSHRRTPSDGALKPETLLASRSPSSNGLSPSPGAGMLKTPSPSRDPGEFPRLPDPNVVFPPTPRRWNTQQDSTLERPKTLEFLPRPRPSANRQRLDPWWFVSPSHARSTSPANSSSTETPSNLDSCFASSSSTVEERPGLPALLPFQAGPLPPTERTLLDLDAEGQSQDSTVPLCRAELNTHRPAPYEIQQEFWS
Serine/threonine-protein kinase Nek4 (Homo sapiens), sequence (P51957 whole entry, looked up): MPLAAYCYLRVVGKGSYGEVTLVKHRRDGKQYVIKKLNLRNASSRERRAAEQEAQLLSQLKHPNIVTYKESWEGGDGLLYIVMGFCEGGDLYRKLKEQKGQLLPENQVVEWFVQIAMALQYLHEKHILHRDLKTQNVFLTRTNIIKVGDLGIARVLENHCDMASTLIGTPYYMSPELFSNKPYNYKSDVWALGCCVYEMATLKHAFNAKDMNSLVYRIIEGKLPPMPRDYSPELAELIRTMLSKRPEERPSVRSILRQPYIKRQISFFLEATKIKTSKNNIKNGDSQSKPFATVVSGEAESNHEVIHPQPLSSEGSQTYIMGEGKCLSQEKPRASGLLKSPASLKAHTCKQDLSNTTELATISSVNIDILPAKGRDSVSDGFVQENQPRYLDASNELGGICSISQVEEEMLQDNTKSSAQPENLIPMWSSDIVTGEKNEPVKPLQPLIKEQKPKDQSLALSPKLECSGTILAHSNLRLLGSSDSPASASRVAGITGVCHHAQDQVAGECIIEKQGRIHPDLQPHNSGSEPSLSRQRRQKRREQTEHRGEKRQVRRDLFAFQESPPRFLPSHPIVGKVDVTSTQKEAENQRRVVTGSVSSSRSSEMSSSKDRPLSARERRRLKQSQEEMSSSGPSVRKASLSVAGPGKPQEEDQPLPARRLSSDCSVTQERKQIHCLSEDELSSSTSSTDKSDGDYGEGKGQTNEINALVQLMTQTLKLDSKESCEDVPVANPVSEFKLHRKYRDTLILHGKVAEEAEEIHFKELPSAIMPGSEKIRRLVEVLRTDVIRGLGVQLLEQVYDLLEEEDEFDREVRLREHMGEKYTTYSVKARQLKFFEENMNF
Platelet-derived growth factor receptor beta (Homo sapiens), sequence (P09619 whole entry): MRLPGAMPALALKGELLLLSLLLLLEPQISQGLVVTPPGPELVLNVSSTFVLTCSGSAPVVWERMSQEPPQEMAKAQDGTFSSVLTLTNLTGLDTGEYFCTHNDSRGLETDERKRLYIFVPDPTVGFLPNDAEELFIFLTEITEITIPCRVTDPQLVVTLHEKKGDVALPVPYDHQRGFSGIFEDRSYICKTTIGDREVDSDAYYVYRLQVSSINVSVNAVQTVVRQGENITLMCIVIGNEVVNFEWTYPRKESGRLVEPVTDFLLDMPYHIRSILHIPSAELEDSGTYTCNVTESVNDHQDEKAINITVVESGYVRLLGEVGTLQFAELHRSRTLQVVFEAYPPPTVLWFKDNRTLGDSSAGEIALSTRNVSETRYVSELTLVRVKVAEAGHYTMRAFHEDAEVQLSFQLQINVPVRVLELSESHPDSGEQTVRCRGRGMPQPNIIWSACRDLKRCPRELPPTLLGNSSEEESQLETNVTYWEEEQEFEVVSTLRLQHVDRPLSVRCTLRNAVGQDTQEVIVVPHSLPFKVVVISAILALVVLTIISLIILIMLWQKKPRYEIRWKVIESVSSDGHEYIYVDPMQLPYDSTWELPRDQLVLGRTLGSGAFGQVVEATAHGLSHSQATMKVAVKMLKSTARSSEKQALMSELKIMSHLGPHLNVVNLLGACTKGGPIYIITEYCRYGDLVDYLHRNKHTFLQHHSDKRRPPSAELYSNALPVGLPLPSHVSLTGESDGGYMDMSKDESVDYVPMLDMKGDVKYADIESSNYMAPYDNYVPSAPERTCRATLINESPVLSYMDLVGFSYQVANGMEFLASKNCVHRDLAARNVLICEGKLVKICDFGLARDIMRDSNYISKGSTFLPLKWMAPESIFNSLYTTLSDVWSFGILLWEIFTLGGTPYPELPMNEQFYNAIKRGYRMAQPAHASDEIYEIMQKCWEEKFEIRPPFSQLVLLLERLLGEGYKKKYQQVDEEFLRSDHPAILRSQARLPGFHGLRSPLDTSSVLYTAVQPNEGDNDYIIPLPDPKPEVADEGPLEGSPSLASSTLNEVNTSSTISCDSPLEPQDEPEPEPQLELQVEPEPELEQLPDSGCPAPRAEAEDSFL

Take `CS(=O)(=O)c1cccc(Nc2nccc(-c3sc(N4CCOCC4)nc3-c3cccc(NS(=O)(=O)c4c(F)cccc4F)c3)n2)c1`: the inhibition stood at 7.1% in experiment [1]; 59.9% in experiment [2]; 94.4% in experiment [3]; 91% in experiment [4]; 34% in experiment [5]; 96.9% in experiment [6]. Also, in experiment [7], the inhibition turned out to be 95.2%.

As to `CC(C)(C)c1cc(NC(=O)Nc2ccc(Oc3ccncc3)cc2)no1`, the inhibition in experiment [1] turned out to be 93.3%; in experiment [2] it was 21.7%; in experiment [3], 29.7%; in experiment [4], 99.5%; in experiment [5], 18.2%; in experiment [6], 99%. Further, the inhibition in experiment [7] stood at 89%.

`COCCNC(=O)c1ccc2c(c1)nc(-c1cnc(-c3ccc(Cl)cc3)[nH]1)n2CCOC`: the inhibition was 5.87% in experiment [1]; -2.37% in experiment [2]; 11% in experiment [3]; 11.1% in experiment [4]; 26.4% in experiment [5]; 54.5% in experiment [6]. Further, the inhibition in experiment [7] was 22.5%.

Usually inhibition stands for the change of the read-out against control, counted positive when it falls.
